Where a name gives a salt, the structure may show the parent alone. Read-outs that look alike come from different tables or passages of the source. Blank lines part the entries; values can stand above or below the molecule they belong to.
Key:
[1] = Hygroscopicity / gravimetric vapor sorption (GVS); format: physicochemical; settings: for water uptake (GVS): 90% RH
Protocol: This is confirmed by gravimetric vapor sorption (GVS) analysis, showing minimal water update (0.3% w/w) up to 90% RH. […] (peak temperature at ca. 91° C.). Upon further heating, Form I appears to sublime, beginning above ca. 120° C. with a weight loss of ca. 99% observed by 212.6° C. ^1H NMR spectra and HPLC-MS results were consistent with the structure of A2-73 freebase. […] FIG. 15 is a […]polarized-light microscopy (PLM) of Freebase Form I. XRPD pattern of Anavex2-73 freebase Form I obtained using copper Ka radiation is shown in FIG. 16.

Alzheimer's disease = experiment: Cognitive function of patients with Alzheimer's disease, transdermal patch; format: in vivo, human
Protocol: A person presents with early signs of Alzheimer's disease. They are administered a pharmaceutical composition via transdermal patch containing 100 mg […]2-73 freebase with a 4 cm2 patch replaced approximately every three days administration for 120 days. Blood levels of about 10 ng/ml are being maintained. […] A person presents with signs of early onset Alzheimer's disease. They are administered via a 9 cm2 transdermal patch containing a pharmaceutical composition containing 200 mg […]2-73 freebase with the patch replaced weekly for 180 days. Blood levels of about 12 ng/ml are being maintained.

[2] = test system: unspecified progressive dementia; experiment: Cognitive function of patients with unspecified progressive dementia, enteric coated tablet; format: in vivo, human; settings: 180 days
Protocol: A person with unspecified progressive dementia is administered 30 mg of […]2-73 fumarate in an enteric coated tablet every other day for 180 days. Blood levels reveal about 25 mg per day are being administered. […] A person with unspecified progressive dementia is administered 50 mg of […]2-73 freebase in an enteric coated tablet every other day for 180 days. Blood levels reveal about 20 mg per day are being administered.

Solubility at defined pH = format: physicochemical
[3] = Blood levels in patients on extended release dosage forms; format: in vivo, human; settings: person
Protocol: A person presents with early signs of Alzheimer's disease. They are administered a pharmaceutical composition via transdermal patch containing 100 mg ANAVEX2-73 freebase with a 4 cm2 patch replaced approximately every three days administration for 120 days. Blood levels of about 10 ng/ml are being maintained.
A person presents with signs of early onset Alzheimer's disease. They are administered via a 9 cm2 transdermal patch containing a pharmaceutical composition containing 200 mg ANAVEX2-73 freebase with the patch replaced weekly for 180 days. Blood levels of about 12 ng/ml are being maintained.
A person with unspecified progressive dementia is administered 30 mg of ANAVEX2-73 fumarate in an enteric coated tablet every other day for 180 days. Blood levels reveal about 25 mg per day are being administered.
A person with unspecified progressive dementia is administered 50 mg of ANAVEX2-73 freebase in an enteric coated tablet every other day for 180 days. Blood levels reveal about 20 mg per day are being administered.

[4] = Solvent solubility screen; format: physicochemical; settings: for solubility: read-out: Approx. Solubility
[5] = Solid form stability (storage, drying); format: physicochemical
ULK1 = ULK1 serine 555 phosphorylation, Western blot; format: cell-based, human; settings: 1 μM; HeLa cells
Source text: Activation of the serine/threonine protein kinase ULK1 (unc-51-like kinase 1) via phosphorylation at serine 555 indicates stimulation of the canonical autophagy pathway. […] It has to be mentioned that this activating ULK1 phosphorylation can be inhibited by mTOR as well as stimulated via AMPK kinase. Both are basal physiological sensors of nutritional conditions and key signal transducers of canonical autophagy stimulation. ULK1 is in fact the signal mediating the induction of the formation of the phagophore during the autophagy process and, therefore, a central promoter of autophagy. ULK1 itself functions in a complex with at least three protein partners: FI P200 (focal adhesion kinase family interacting protein of 200 kDa), ATG (autophagy-related protein) 13 (ATG13), and ATG101.
Cell culture and microscopy. HeLa and HEK293A cells were cultured in DMEM (Invitrogen, Carlsbad, CA, USA, 41965062) supplemented with active FBS (Life Technologies GmbH, Carlsbad, CA, USA, 10270106), 1×ABAM (Invitrogen, 15240-062) and 1 mM sodium pyruvate (Invitrogen, 1136-088). […] Proteins were detected by chemiluminescence using the Amersham Imager 600 (GE). Confocal fluorescence microscopical analyses of HEK293A cells stably expressing GFP-LC3B were performed with the laser scanning microscope LSM 710 (Zeiss, Oberkochen).

HeLa cells = experiment: LC3-II autophagic flux, Western blot with Bafilomycin A1; format: cell-based, human; settings: 1 μM, BafiA1 2 μM, vs control
Protocol: To study the effect of ANAVEX2-73 on autophagy, human HeLa cells were treated with the compound and autophagic activity was analyzed by investigating the flux of LC3-II. LC3-II is the lipidated form of LC3, which (partially) stays attached to autophagosomes and thus, gets degraded by lysosomes. Therefore, the quantification of the LC3-II flux, using Bafilomycin AI (BafiAi; 2 μM) for inhibition of lysosomal degradation, directly corresponds to cellular autophagic activity. […] There is a concentration-dependent and significant increase in the autophagic-flux following application of ANAVEX2-73: an increase of over 2-fold at 10 μM and over 1.5-fold at 1 μM ANAVEX2-73 (FIG. 35A). As standard positive control to provoke the induction of autophagy, HeLa cells were incubated with EBSS, which resembles nutrient deprivation as autophagy stimulus.
Cell culture and microscopy. HeLa and HEK293A cells were cultured in DMEM (Invitrogen, Carlsbad, CA, USA, 41965062) supplemented with active FBS (Life Technologies GmbH, Carlsbad, CA, USA, 10270106), 1×ABAM (Invitrogen, 15240-062) and 1 mM sodium pyruvate (Invitrogen, 1136-088). After medium change, the cells were treated for 2 h with 10, 1, and 0.1 μM ANAVEX2-73 and PRE-084 (Tocris, Bristol, UK, 0589), respectively; ANAVEX2-73 was provided by ANAVEX Life Sciences Corp, New York, NY, USA. Afterwards Bafilomycin A1 (Bafi.Ai; 2 μM) (Toronto Research Chemicals, North York, ON, Canada, B110000) or DMSO was added for a further 2 h and the cells were eventually harvested. Western blot analyses were performed as described previously. Briefly, cells were subjected to SDS-PAGE using precast NuPAGE 4%-12% Bis-Tris gels (Invitrogen, NP0322). Proteins were detected by chemiluminescence using the Amersham Imager 600 (GE). Confocal fluorescence microscopical analyses of HEK293A cells stably expressing GFP-LC3B were performed with the laser scanning microscope LSM 710 (Zeiss, Oberkochen).

[6] = pH of a saturated solution; format: physicochemical; settings: saturated solution in water

hygroscopicity [1]: non-hygroscopic | water uptake (GVS) [1]: 0.3 % w/w | XRPD analysis post-GVS ([1]; post-GVS): no change in form | water solubility (Solubility at defined pH; water): not highly water soluble | amount administered per day as revealed by blood levels ([3]; 50 mg enteric coated tablet every other day, 180 days): about 20 mg per day | blood levels maintained ([3]; transdermal patch 100 mg, 4 cm2, replaced approximately every three days, 120 days): about 10 ng/ml | blood levels maintained ([3]; transdermal patch 200 mg, 9 cm2, replaced weekly, 180 days): about 12 ng/ml | solubility ([4]; 1,4-dioxane, organic solvent or mixture): ≥ 200 mg/mL | solubility ([4]; 1-butanol, organic solvent or mixture): ≥ 200 mg/mL | solubility ([4]; 2-butanone, organic solvent or mixture): ≥ 200 mg/mL | solubility ([4]; N,N′-dimethylformamide, organic solvent or mixture): ≥ 200 mg/mL | solubility ([4]; acetone, organic solvent or mixture): ≥ 200 mg/mL | solubility ([4]; cyclohexane, organic solvent or mixture): ≥ 200 mg/mL | solubility ([4]; dimethyl sulfoxide, organic solvent or mixture): ≥ 200 mg/mL | solubility ([4]; heptane, organic solvent or mixture): ≥ 200 mg/mL | solubility ([4]; methyl acetate, organic solvent or mixture): ≥ 200 mg/mL | solubility ([4]; methyl isobutyl ketone, organic solvent or mixture): ≥ 200 mg/mL | solubility ([4]; nitromethane, organic solvent or mixture): ≥ 200 mg/mL | solubility ([4]; tetrahydrofuran, organic solvent or mixture): ≥ 200 mg/mL | solubility ([4]; water): < 5 mg/mL
Structure (SMILES): CN(C)CC1CCOC1(c1ccccc1)c1ccccc1 (centres unmarked) [A2-73 freebase Form I, tetrahydro-N,N-dimethyl-2,2-diphenyl-3-furanmethanamine]
cognitive function (Alzheimer's disease; early onset Alzheimer's disease, patch 200 mg, 9 cm2, weekly, 180 days): stabilizes during that period with no additional loss detected | cognitive function (Alzheimer's disease; early signs of Alzheimer's disease, patch 100 mg, 4 cm2, every three days, 120 days): stabilizes during that period, with no additional loss detected | cognitive function ([2]; 50 mg enteric coated tablet every other day): stabilizes during that period with no additional loss detected | solubility in the solvents tested (summary) ([4]; all solvents of Table 10): high solubility in all solvents tested, except water

amount administered per day as revealed by blood levels ([3]; 30 mg enteric coated tablet every other day, 180 days): about 25 mg per day
Structure (SMILES): CN(C)CC1CCOC1(c1ccccc1)c1ccccc1 (centres unmarked) [ANAVEX2-73 fumarate, tetrahydro-N,N-dimethyl-2,2-diphenyl-3-furanmethanamine]
cognitive function ([2]; 30 mg enteric coated tablet every other day): stabilizes during that period with no additional loss detected

hygroscopicity [1]: hygroscopic | solubility (Solubility at defined pH; pH 1.2, simulated gastric fluid, pH 1.2, read-out: solubility): ~47.2 mg/mL | solubility (Solubility at defined pH; pH 4.5): ~33.1 mg/mL | pH of a saturated solution [6]: 2.66
Structure (SMILES): CN(C)CC1CCOC1(c1ccccc1)c1ccccc1 (centres unmarked) [A2-73 dihydrogen phosphate Form I, tetrahydro-N,N-dimethyl-2,2-diphenyl-3-furanmethanamine]

hygroscopicity [1]: slightly hygroscopic | water uptake (GVS) [1]: ca. 0.9 % w/w | solubility at GI pH (Solubility at defined pH; GI pH): lower solubility | solubility at gastric pH (Solubility at defined pH; gastric pH (generally about 1.5 to 3.5)): moderate solubility | solubility (Solubility at defined pH; pH 1.2): ca. 43.0 mg/mL | solubility (Solubility at defined pH; pH 4.5): ~4.1 mg/mL | solubility (Solubility at defined pH; pH 6.8, aqueous buffer, pH 6.8, read-out: solubility): ~12.6 mg/mL | pH of a saturated solution [6]: 3.61
Structure (SMILES): CN(C)CC1CCOC1(c1ccccc1)c1ccccc1 (centres unmarked) [A2-73 hydrogen fumarate Form III, tetrahydro-N,N-dimethyl-2,2-diphenyl-3-furanmethanamine]

hygroscopicity ([1]; hydrochloride): slightly-hygroscopic
Structure (SMILES): CN(C)CC1CCOC1(c1ccccc1)c1ccccc1.Cl (centres unmarked) [Form III, tetrahydro-N,N-dimethyl-2,2-diphenyl-3-furanmethanamine hydrochloride]

Second part, the molecule before the results:

Structure (SMILES): CN(C)CC1CCOC1(c1ccccc1)c1ccccc1 (centres unmarked) [A2-73 sulfate Form II, tetrahydro-N,N-dimethyl-2,2-diphenyl-3-furanmethanamine]
form stability on storage ([5]; post-storage at 40° C./75% RH): metastable, converting to A2-73 sulfate Form I

Structure (SMILES): CN(C)CC1CCOC1(c1ccccc1)c1ccccc1.Cl (centres unmarked) [Form II, tetrahydro-N,N-dimethyl-2,2-diphenyl-3-furanmethanamine hydrochloride]
hygroscopicity ([1]; hydrochloride): slightly hygroscopic

Structure (SMILES): O=C(OCCN1CCOCC1)C1(c2ccccc2)CCCCC1 [PRE-084, 2-morpholin-4-ylethyl 1-phenylcyclohexane-1-carboxylate, reference compound]
ULK1 serine 555 phosphorylation (ULK1): up to 1.5 fold | increase in autophagic flux (LC3-II) (HeLa cells): over 1.5 fold

Structure (SMILES): CN(C)CC1CCOC1(c1ccccc1)c1ccccc1.Cl (racemic) [Form VIII, tetrahydro-N,N-dimethyl-2,2-diphenyl-3-furanmethanamine hydrochloride]
form stability on drying ([5]; dried after isolation wet with water): once dried, it converts to Form I

From patent US12180174B2, “A2-73 crystalline polymorph compositions of matter and methods of use thereof” (ANAVEX LIFE SCIENCES CORP., priority 2018, dated 2024)
